The results in this text go back to US20210100246A1, “PYRIDYL-FORMAMIDINES HAVING A FUNGICIDAL ACTIVITY, THEIR AGRONOMIC COMPOSITIONS AND USE THEREOF” (ISAGRO, S.p.A., priority 2017, published 2021).

One data set concerns Puccinia Recondita. Put plainly: Preventive fungicidal activity (5 days) against Puccinia Recondita on wheat. Type of data set: in vivo. The following applies: wheat; for Activity P5 NT (reduction of leaf area affected, parts developed during the test): non-treated parts (NT); for effectiveness in containing the disease (in words): summary of Table 4. As for the experimental part: Determination of the preventive fungicidal activity (5 days) against Puccinia Recondita on wheat.
(§1) Leaves of wheat plants of the Salgemma variety, grown in pots in a conditioned environment at 20° C. and 70% of Relative Humidity (RH) were treated by spraying both sides of the leaves with the compound under examination (see Table 4 hereunder) dispersed in a hydroacetonic solution at 20% by volume of acetone.
After remaining 5 days in a conditioned environment, the plants were sprayed on both sides of the leaves with an aqueous suspension of conidia of Puccinia Recondita (2 mg of inoculum per 1 ml of solution for infection).
After spraying, the plants were kept in a humidity-saturated environment at a temperature ranging from 18 to 24° C. for the incubation period of the fungus (1 day).
At the end of this period, the plants were put in a greenhouse with a relative humidity (RH) of 70% and at a temperature of 18-24° C. for 14 days.
At the end of this period, the external symptoms of the pathogen appeared and it was therefore possible to proceed with the visual evaluation of the intensity of the infection, both on the parts treated directly with the products (T) and on the parts developed during the implementation of the test (NT).
(§2) The fungicidal activity is expressed as a percentage of the reduction, with respect to non-treated seedlings (comparison), in the area of the leaf affected by the disease (100=full effectiveness; 0=zero effectiveness).

Another data set concerns wheat seedlings. Put plainly: Phytotoxicity (percentage of leaf necrosis) on wheat seedlings. In kind it is in vivo. The settings on record: for Phytotoxicity % N.F. (leaf necrosis): wheat seedlings, scale 0-100; for symptoms of phytotoxicity on the plant (in words): wheat, summary of Table 4. Here is the method:
as §1
At the same time, an evaluation of the phytotoxicity was effected (percentage of leaf necrosis) induced on the wheat seedlings by the application of the products: in this case the evaluation scale ranges from 0 (completely healthy plant) to 100 (completely necrotic plant).

For another data set, the system named is Uromyces Appendiculatus. Put plainly: Preventive fungicidal activity (5 days) against Uromyces Appendiculatus on beans. Type of data set: in vivo. As for the experimental part: Determination of the preventive fungicidal activity (5 days) against Uromyces Appendiculatus on beans.
(§3) Bean plants cv. Borlotto of Vigevano, grown in pots in a conditioned environment, were treated by spraying both sides with the products under examination in a hydroacetonic solution with 20% by volume of acetone (vol./vol.).
After remaining 5 days in a conditioned environment at 23° C. and 70% of relative humidity, the plants were sprayed on the lower side with an aqueous suspension of spores of Uromyces Appendiculatus (200,000 spores/cc); after remaining 24 hours in a humidity-saturated environment, they were re-transferred to the conditioned environment.
After this period, the external symptoms of the pathogen appeared and it was therefore possible to proceed with the visual evaluation of the intensity of the infection.
as §2

The subject of a further data set is bean seedlings. Put plainly: Phytotoxicity (percentage of leaf necrosis) on bean seedlings. In kind it is in vivo. The settings on record: scale 0-100. Here is the method: as §3
At the same time, an evaluation of the phytotoxicity was effected (percentage of leaf necrosis) induced on the bean seedlings by the application of the products: in this case the evaluation scale ranges from 0 (completely healthy plant) to 100 (completely necrotic plant).

For the next data set, the system named is Sphaerotheca Fuliginea. Put plainly: Preventive fungicidal activity (7 days) against Sphaerotheca Fuliginea on cucumbers. In kind it is in vivo. As for the experimental part:
Determination of the preventive fungicidal activity (7 days) against Sphaerotheca Fuliginea on cucumbers.
(§4) Cucumber plants cv. Lungo of China, grown in pots in a conditioned environment were treated by spraying both sides with the products under examination in a hydroacetonic solution with 20% by volume of acetone (vol./vol.).
7 days after the treatment, the plants were sprayed on the upper side with an aqueous suspension of spores of Sphaerotheca Fuliginea (200,000 spores/cc); they were then re-transferred to the conditioned environment.
At the end of the period of incubation (8 days), the evaluation of the intensity of the infection was finally effected.
as §2

The subject of the next data set is cucumber seedlings. Kind of data set: Phytotoxicity (percentage of leaf necrosis) on cucumber seedlings. Type of data set: in vivo. The following applies: scale 0-100. As for the experimental part:
as §4
At the same time, an evaluation of the phytotoxicity was effected (percentage of leaf necrosis) induced on the cucumber seedlings by the application of the products: in this case the evaluation scale ranges from 0 (completely healthy plant) to 100 (completely necrotic plant).

A short description of data set [1]: Accelerated stability test of 5% solutions in commercial solvents (54° C., 2 weeks, HPLC). Type of data set: physicochemical. Here is the method: Stability tests of the compositions containing compounds having formula (I) in a solvent
In order to evaluate the chemical stability of the compounds having Formula (I) in a solvent, 5% solutions were prepared, containing 250 mg of compounds Nr. 1, 17, 39 and 40, dissolved in 4.75 g of various commercial solvents used for the preparation of emulsifiable concentrates.
The resulting solutions were put in an oven at 54° C. for 2 weeks (according to Cipac MT 46.1 update 2012) and then analyzed by means of HPLC in order to verify the concentration of the active ingredient contained therein. The percentage of degradation of the compound having Formula (I) was therefore obtained, after the accelerated stability test.

The subject of another data set is Helmintosporium teres. Kind of data set: Preventive fungicidal activity (7 days) against Helmintosporium teres on barley. The settings on record: for Activity P7: 125 ppm, scale 0 (completely infected plant) to 100 (healthy plant). Type of data set: in vivo. As for the experimental part: Determination of the preventive fungicidal activity (7 days) against Helmintosporium teres on barley. […] After remaining 7 days in a conditioned environment, the plants were sprayed on both sides of the leaves with an aqueous suspension of conidia of Helmintosporium teres (50,000 conidia/cc+Tween 20-1 drop/100 ml). The plants were then kept in a controlled environment during the incubation period of the fungus (wet room 1 day for infection, 3 days in a cell with 70% of R.H. and at a temperature of […] for the incubation period, 3 days for completion in a wet room, biological cycle 12 days). At the end of this period (12 days), the fungicidal activity was evaluated according to an evaluation percentage scale from 0 (completely infected plant) to 100 (healthy plant).

In a further data set the test system is Parastagonospora nodorum. Put plainly: Preventive activity (7 days) against Parastagonospora nodorum on wheat. In kind it is in vivo. The settings on record: 250 ppm. Here is the method:
Determination of the preventive activity (7 days) of the compounds having formula (I) against Parastagonospora nodorum on wheat. […] After remaining 48 hours in a humidity-saturated environment, at 21° C., the plants were transferred for the incubation period (10-12 days) to a conditioned environment at 70% of R.H. and at a temperature of 24° C. At the end of this period, the external symptoms of the pathogen appeared and it was therefore possible to proceed with the visual evaluation of the intensity of the infection. The fungicidal activity was expressed as a percentage of the reduction, with respect to non-treated seedlings (comparison), in the area of the leaf affected by the disease (100=full effectiveness; 0=zero effectiveness). Table 7 indicates the results obtained by carrying out the test described with compound Nr. 12, compared with a compound described in WO2008/101682: […]

As for `CCN(C)C=Nc1cc(Br)c(SCc2cccc(C(F)(F)F)c2)nc1C` [Compound 1, N-ethyl-N-methyl-N′-5bromo-2-methyl-6-{[3-(trifluoromethyl)benzyl]thio}pyridyl-3-formamidine], the “Activity P5 NT (reduction of leaf area affected, parts developed during the test)” value is reported as 75% in the data set with Puccinia Recondita (125 ppm) and 85% in the data set on Puccinia Recondita (250 ppm). In addition, the “Activity P5 T (reduction of leaf area affected, parts treated directly)” value in the data set with Puccinia Recondita (125 ppm) turned out to be 98%; with Puccinia Recondita (250 ppm), 100%. Also, in the data set on Puccinia Recondita, the “effectiveness in containing the disease (in words)” value is reported as “effective in containing the disease”. Further, the “Phytotoxicity % N.F. (leaf necrosis)” value in the data set with wheat seedlings (125 ppm), in the data set on wheat seedlings (250 ppm), in the data set on bean seedlings (30 ppm), in the data set with bean seedlings (125 ppm), in the data set on cucumber seedlings (30 ppm) and in the data set with cucumber seedlings (125 ppm) was 0 % N.F each time. In the data set with wheat seedlings, the “symptoms of phytotoxicity on the plant (in words)” value is recorded as “do not show any symptoms of phytotoxicity”. Also, the “Activity P5” value in the data set with Uromyces Appendiculatus (30 ppm) came to 90%; in the data set on Uromyces Appendiculatus (125 ppm), 100%; in the data set with Sphaerotheca Fuliginea (30 ppm), 90%; with Sphaerotheca Fuliginea (125 ppm), 100%. In addition, the percentage of degradation in data set [1] (solvent ADMA 10 (N,N-dimethyldecanamide)) came out at 1.07%; in data set [1] (solvent Alkamuls T/20 (ethoxylated sorbitan monolaurate)), 58.61%; in [1] (solvent CME (rapeseed methyl ester)), 10.79%; in data set [1] (solvent FMPC (N-formylmorpholine and propylene carbonate)) it was 1.46%; in data set [1] (solvent Green 25 (dimethylsulfoxide, acetophenone, 2-ethylhexyl acetate)), 2.07%; in data set [1] (solvent Propylene carbonate), 3%. Further, the percentage of degradation is recorded as 100% in data set [1] (solvent Purasolv BL (butyl lactate)) and 0.78% in [1] (solvent RPDE (dimethyl glutarate, dimethyl succinate, dimethyl adipate)).

With `CCN(C)C=Nc1cc(Br)c(Sc2ccc(Cl)c(C(F)(F)F)c2)nc1C` [Compound 8], in the data set with Helmintosporium teres, the “effectiveness on Helmintosporium teres (in words)” value was “higher effectiveness with respect to the reference compound CR4” and the “Activity P7” value was determined as 30%.

Turning to “N-ethyl-N-methyl-N′-[5-bromo-2-methyl-6-[(1-methyl -2-propoxyethoxy]pyridyl-3-formamidine [CR3]”, in the data set with Parastagonospora nodorum, the “Activity P7” value turned out to be 57%.

On to “N-ethyl-N-methyl-N′-[5-bromo-2-methyl-6-[(4-chloro-3-trifluoromethyl]phenoxy]pyridyl-3-formamidine [CR4, reference compound]”, for which, in the data set with Helmintosporium teres, the “effectiveness on Helmintosporium teres (in words)” value is “completely inactive” and the “Activity P7” value is listed as 0%.

For the compound `CCN(C)C=Nc1cc(C)c(SCCC(C)C)nc1C` [Compound 2], the figures for the “Activity P5 NT (reduction of leaf area affected, parts developed during the test)” value with Puccinia Recondita (125 ppm) and in the data set on Puccinia Recondita (250 ppm) were 85% and 95%, respectively. Further, the “Activity P5 T (reduction of leaf area affected, parts treated directly)” value in the data set on Puccinia Recondita (125 ppm) and with Puccinia Recondita (250 ppm) was 100% in each case. Also, the “effectiveness in containing the disease (in words)” value in the data set with Puccinia Recondita is “effective in containing the disease”. The “Phytotoxicity % N.F. (leaf necrosis)” value with wheat seedlings (125 ppm) came to 0 % N.F; in the data set on wheat seedlings (250 ppm), 0 % N.F; in the data set on bean seedlings (30 ppm), 0 % N.F; in the data set with bean seedlings (125 ppm), 0 % N.F; with cucumber seedlings (30 ppm), 0 % N.F; with cucumber seedlings (125 ppm), 2 % N.F. In addition, the “symptoms of phytotoxicity on the plant (in words)” value in the data set on wheat seedlings was “do not show any symptoms of phytotoxicity”. Also, the “Activity P5” value with Uromyces Appendiculatus (30 ppm) is 100%; in the data set with Uromyces Appendiculatus (125 ppm) it was 100%; with Sphaerotheca Fuliginea (30 ppm), 99%; with Sphaerotheca Fuliginea (125 ppm), 100%.
